Calls of active or inactive are those of the source.
Legend:
[1] = molecular target: T1, Heat shock factor protein 1 (Mus musculus, UniProt P38532); assay: decrease of HSF1-responsive luciferase luminescence – cell-based, NIH3T3, dose retest, confirmation (AID 2382); assay type: functional;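 note: NIH3T3 fibroblasts with HSF1-driven luciferase reporter stressed by proteasome inhibitor MG132; luminescence from HSF1-driven luciferase expression after 8 hours of MG132 stress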
T1 sequence (P38532 whole entry): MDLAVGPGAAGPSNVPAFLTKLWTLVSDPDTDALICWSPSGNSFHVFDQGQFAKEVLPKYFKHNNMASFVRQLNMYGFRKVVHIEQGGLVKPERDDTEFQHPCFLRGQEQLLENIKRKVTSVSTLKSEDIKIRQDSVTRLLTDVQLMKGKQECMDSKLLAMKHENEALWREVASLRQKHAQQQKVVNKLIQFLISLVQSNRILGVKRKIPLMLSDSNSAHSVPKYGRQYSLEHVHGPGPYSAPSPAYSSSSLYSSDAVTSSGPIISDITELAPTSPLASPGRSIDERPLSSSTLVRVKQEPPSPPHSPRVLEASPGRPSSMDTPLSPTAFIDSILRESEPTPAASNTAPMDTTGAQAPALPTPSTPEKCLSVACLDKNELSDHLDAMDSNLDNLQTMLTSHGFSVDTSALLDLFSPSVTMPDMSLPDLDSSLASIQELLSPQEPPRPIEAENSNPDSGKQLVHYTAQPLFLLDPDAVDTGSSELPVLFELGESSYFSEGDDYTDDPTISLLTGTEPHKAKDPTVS

[2] = molecular target: T2, Short transient receptor potential channel 4 (Mus musculus, UniProt Q9QUQ5); assay: block of DAMGO-driven TRPC4 calcium entry – cell-based, HEK293 TRPC4/mu-opioid, Fluo-4 calcium, dose response (AID 434942); assay type: functional;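 note: potency of inhibitors blocking the TRPC4 calcium response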
T2 sequence (Q9QUQ5 whole entry): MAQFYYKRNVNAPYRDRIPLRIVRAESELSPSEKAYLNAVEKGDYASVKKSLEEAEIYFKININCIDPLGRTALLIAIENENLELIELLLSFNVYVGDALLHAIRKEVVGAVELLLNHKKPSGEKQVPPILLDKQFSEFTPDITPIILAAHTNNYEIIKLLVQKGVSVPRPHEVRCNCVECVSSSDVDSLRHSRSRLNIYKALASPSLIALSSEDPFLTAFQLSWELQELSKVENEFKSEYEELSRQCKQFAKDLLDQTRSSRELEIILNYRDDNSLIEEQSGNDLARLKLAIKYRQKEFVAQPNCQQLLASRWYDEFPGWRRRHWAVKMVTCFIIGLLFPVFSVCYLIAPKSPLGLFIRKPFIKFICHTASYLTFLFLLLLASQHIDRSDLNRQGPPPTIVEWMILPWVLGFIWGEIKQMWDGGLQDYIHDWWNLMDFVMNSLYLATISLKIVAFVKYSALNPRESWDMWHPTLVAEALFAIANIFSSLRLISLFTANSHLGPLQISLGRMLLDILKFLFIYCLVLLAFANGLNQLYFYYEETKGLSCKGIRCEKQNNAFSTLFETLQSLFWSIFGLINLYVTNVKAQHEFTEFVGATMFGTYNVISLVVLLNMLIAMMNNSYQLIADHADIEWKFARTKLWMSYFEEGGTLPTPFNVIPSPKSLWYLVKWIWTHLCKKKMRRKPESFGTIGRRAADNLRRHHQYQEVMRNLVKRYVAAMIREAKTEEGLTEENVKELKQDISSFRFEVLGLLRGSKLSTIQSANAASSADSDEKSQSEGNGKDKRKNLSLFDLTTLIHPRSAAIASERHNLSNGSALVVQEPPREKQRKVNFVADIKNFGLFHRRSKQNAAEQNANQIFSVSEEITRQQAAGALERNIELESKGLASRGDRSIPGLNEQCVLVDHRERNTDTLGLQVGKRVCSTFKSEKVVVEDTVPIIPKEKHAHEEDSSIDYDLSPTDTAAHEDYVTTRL

[3] = molecular target: Peroxisome proliferator-activated receptor gamma/Nuclear receptor coactivator 1 (Homo sapiens, UniProt P37231); assay: (§1) TR-FRET dose response biochemical High Throughput Screening assay for agonists of the steroid receptor coactivator 1 (SRC-1) recruitment by the peroxisome proliferator-activated receptor gamma (PPAR gamma): non-selective agonists. [Related pubchem assays (depositor defined):AID1300, AID1808, AID504735, AID631]; assay type: protein assay
[4] = molecular target: Peroxisome proliferator-activated receptor gamma/Nuclear receptor coactivator 3 (Homo sapiens, UniProt P37231); assay: as §1, with “3 (SRC-3)” for “1 (SRC-1)”, “assays: 1301 (Confirmation screen.), 1048 (Primary screen.)]” for “assays (depositor defined):AID1300, AID1808, AID504735, AID631]”; assay type: functional
[5] = molecular target: Peroxisome proliferator-activated receptor gamma/Nuclear receptor coactivator 2 (Homo sapiens, UniProt P37231); assay: TR-FRET dose response biochemical High Throughput Screening assay for agonists of the steroid receptor coactivator 2 (SRC-2) recruitment by the peroxisome proliferator-activated receptor gamma (PPAR gamma): non-selective agonists. [Related pubchem assays: 1297, 1032 ]; assay type: functional
Sequence of Peroxisome proliferator-activated receptor gamma/Nuclear receptor coactivator 2 (P37231 whole entry): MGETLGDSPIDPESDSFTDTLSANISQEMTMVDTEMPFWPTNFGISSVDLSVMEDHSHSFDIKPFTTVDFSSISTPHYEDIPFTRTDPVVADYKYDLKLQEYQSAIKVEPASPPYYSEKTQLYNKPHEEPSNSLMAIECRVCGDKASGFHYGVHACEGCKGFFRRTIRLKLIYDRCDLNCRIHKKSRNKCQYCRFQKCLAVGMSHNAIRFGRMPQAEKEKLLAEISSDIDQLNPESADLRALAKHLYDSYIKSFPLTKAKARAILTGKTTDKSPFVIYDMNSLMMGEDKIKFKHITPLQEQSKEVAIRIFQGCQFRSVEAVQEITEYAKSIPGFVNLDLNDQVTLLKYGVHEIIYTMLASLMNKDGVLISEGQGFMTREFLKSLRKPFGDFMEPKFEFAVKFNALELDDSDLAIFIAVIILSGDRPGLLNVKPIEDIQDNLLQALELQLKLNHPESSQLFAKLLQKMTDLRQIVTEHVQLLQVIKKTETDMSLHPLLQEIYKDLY
Sequence of Peroxisome proliferator-activated receptor gamma/Nuclear receptor coactivator 2 (Q15596 whole entry, further chain): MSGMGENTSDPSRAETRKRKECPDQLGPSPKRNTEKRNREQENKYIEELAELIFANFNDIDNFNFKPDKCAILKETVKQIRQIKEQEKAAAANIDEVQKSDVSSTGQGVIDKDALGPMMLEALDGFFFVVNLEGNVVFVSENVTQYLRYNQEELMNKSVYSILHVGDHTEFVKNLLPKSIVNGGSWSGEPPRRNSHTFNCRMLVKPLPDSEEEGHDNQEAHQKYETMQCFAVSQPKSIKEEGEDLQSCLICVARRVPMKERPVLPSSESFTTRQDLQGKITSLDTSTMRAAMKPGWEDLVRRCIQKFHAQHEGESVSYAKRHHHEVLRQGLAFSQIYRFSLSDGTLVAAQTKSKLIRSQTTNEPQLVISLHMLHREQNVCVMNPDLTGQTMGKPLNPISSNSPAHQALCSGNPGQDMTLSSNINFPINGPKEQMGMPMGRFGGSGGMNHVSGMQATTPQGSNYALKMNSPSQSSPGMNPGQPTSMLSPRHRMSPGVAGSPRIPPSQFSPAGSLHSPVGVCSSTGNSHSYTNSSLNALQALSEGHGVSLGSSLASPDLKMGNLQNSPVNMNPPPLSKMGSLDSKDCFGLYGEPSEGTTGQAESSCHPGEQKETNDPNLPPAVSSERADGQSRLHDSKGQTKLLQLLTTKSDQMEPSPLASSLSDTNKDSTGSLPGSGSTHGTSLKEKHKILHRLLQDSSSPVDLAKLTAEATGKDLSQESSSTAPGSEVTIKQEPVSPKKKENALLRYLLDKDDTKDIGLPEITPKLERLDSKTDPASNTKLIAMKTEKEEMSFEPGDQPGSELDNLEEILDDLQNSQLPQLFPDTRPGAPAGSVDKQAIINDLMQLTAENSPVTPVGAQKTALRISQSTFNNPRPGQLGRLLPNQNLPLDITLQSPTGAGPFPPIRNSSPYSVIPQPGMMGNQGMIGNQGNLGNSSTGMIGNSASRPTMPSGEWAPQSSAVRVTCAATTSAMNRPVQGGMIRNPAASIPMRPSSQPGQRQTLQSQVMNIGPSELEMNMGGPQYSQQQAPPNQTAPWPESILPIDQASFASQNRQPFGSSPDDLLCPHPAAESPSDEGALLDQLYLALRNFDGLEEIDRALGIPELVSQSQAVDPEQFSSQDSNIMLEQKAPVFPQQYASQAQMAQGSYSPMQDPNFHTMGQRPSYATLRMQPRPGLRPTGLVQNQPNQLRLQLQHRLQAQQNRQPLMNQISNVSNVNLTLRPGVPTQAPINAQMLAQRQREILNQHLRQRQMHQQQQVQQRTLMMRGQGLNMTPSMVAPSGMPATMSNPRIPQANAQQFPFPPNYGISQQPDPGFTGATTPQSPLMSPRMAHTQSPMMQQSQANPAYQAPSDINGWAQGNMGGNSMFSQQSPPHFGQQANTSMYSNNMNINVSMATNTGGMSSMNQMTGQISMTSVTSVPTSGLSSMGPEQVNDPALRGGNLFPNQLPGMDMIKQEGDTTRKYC

HEK293 [6] = assay: EBV LMP1 TES2 canonical NF-kB signalling blockers – cell-based, HEK293, luciferase, cherry-pick, dose response (AID 588343); assay type: functional; details: Homo sapiens
[7] = HEK-293T cell viability reduction – luminescence, B-cell screen hits, cytotoxicity control for BCR NF-kB inhibitor project, dose response (AID 489021); assay type: functional, cell-based;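 note: HEK-293T cells carrying an NF-kB luciferase reporter; cells exposed to compound for about 14 hours before viability readout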
[8] = molecular target: T3, Small ubiquitin-related modifier 1 (Homo sapiens, UniProt P63165); assay: SUMO1 protein-protein binding blockers, potency – biochemical, FRET, dose response (AID 624383); assay type: functional; details: read-out: IC50_Mean
T3 sequence (P63165 whole entry): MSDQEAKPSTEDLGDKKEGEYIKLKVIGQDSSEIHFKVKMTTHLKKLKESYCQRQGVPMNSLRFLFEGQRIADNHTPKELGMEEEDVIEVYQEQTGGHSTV

Tumor necrosis factor = Tumor necrosis factor (Homo sapiens, UniProt P01375); assay: analog potency on TNFa NF-kB signaling – cell-based, revised, SAR follow-up (AID 2337); assay type: functional
Sequence of Tumor necrosis factor (P01375 whole entry): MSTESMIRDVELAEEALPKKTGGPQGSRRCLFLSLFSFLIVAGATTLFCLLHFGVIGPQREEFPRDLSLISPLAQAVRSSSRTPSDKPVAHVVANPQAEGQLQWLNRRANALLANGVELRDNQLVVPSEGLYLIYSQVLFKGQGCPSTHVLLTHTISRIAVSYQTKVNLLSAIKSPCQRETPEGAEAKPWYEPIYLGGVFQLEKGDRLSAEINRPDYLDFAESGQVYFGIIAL

HEK293 [9] = assay: NOD2 signaling inhibitors in MDP-stimulated cells, cell-based, uHTS, luminescence (AID 2001); assay type: functional; details: Homo sapiens
[10] = molecular target: T4, Nucleotide-binding oligomerization domain-containing protein 2 (Homo sapiens, UniProt Q9HC29); assay: inhibition of NOD2-driven NF-kB reporter – cell-based, luminescence, uHTS, HEK293 (AID 1566); assay type: functional
T4 sequence (Q9HC29 whole entry, the tested form may be a part): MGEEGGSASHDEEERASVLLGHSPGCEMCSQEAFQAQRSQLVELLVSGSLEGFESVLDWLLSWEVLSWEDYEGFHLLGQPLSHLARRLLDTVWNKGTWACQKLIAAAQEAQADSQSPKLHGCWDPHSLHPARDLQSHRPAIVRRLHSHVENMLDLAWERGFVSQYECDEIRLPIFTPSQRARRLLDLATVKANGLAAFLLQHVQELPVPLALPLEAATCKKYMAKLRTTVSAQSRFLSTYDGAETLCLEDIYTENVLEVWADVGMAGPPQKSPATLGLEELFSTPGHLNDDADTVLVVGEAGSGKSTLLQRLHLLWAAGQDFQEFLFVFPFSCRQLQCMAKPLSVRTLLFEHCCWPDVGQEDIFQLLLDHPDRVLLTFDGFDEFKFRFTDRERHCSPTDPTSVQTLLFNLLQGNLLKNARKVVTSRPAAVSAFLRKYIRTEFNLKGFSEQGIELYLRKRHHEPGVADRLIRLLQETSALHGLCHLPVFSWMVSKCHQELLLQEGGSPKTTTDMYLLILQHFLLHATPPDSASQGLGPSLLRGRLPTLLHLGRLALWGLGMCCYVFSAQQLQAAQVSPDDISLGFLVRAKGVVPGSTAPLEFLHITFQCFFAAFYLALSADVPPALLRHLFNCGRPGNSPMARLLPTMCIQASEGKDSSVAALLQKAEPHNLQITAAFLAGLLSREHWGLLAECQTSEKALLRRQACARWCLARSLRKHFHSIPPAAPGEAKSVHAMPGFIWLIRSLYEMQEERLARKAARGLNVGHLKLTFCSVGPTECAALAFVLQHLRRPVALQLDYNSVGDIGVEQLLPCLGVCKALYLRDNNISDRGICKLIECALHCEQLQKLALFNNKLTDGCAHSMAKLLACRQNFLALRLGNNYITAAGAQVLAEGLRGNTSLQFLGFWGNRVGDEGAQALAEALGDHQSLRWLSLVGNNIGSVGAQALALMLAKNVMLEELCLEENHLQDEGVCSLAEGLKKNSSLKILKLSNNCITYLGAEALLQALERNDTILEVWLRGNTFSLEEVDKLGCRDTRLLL

HEK293 [11] = assay: inhibition of NOD1-driven NF-kB reporter – cell-based, luminescence, uHTS, primary screen (AID 1578); assay type: functional; details: Homo sapiens
[12] = molecular target: T3, Small ubiquitin-related modifier 1; assay: SUMO1 protein interaction blockers, potency – biochemical, fluorescence polarization, uHTS hits, dose response (AID 624382); assay type: functional; details: read-out: IC50_Mean
HEK293 [13] = assay: cells; details: Homo sapiens
HEK293 [14] = assay: cells; assay type: functional, cell-based; details: Homo sapiens
HEK293 [15] = assay: cells; assay type: functional, cell-based; details: Homo sapiens; remark: listed apart in the source
HEK293 [16] = assay: cells; assay type: functional, cell-based; details: Homo sapiens; remark: listed apart in the source
[17] = molecular target: T4, Nucleotide-binding oligomerization domain-containing protein 2; assay: PubChem AID 2334; assay type: functional
[18] = molecular target: T5, Nucleotide-binding oligomerization domain-containing protein 1 (Homo sapiens, UniProt Q9Y239); assay: blockers of NOD1 pathway activity – revised, SAR follow-up (AID 2333); assay type: functional
T5 sequence (Q9Y239 whole entry): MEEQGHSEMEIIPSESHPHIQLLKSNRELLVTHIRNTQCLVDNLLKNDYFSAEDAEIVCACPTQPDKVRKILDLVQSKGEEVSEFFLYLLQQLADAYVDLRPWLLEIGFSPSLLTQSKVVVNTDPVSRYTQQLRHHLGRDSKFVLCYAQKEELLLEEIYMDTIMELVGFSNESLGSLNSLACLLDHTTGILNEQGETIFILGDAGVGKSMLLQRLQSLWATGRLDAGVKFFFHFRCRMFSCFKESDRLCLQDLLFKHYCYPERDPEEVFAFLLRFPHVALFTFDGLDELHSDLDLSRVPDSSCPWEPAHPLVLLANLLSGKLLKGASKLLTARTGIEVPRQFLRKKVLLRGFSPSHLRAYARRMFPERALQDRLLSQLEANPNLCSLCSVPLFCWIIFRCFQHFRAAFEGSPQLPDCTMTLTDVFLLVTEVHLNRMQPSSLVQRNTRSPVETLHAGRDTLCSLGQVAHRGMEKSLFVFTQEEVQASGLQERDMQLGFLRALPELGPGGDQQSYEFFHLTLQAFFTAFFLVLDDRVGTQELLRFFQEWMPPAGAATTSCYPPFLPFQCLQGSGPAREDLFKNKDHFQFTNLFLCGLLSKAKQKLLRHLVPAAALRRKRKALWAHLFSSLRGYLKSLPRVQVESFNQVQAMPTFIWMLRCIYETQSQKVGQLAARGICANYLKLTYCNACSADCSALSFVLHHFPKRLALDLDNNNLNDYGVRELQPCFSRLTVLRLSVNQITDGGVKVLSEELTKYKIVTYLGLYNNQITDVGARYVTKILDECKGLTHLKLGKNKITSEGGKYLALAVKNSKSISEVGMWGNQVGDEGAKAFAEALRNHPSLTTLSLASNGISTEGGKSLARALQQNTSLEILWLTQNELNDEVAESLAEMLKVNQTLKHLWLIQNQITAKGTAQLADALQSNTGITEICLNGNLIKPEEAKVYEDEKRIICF

X-box-binding protein 1 = X-box-binding protein 1 (Homo sapiens, UniProt P17861); assay type: functional, Cricetulus griseus;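 note: confirmatory dose-response counter-screen serving a CHOP assay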
Sequence of X-box-binding protein 1 (P17861 whole entry): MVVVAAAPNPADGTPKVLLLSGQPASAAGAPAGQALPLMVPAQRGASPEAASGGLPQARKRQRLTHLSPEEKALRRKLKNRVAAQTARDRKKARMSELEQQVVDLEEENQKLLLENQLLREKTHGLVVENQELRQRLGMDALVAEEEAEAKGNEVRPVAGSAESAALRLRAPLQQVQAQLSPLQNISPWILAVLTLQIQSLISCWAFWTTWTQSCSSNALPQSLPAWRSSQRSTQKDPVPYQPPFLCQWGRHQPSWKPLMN

Compound: Cc1ccc(OCc2cc(C(=O)N(C)CCc3nc4ccccc4[nH]3)no2)cc1C
- EC50 [1]: > 195 µM (not active)
- EC50 [2]: 1.06 µM (active)

Compound: O=C(Cc1cccc2ccccc12)Nc1ccc(-c2cc3ccccc3oc2=O)cc1
- EC50 [3]: 22.7 µM (inactive)
- EC50 [4]: > 79.4 µM (not active)
- EC50 [5]: 22 µM (not active)
- AC50 (HEK293 [6]): 0.587 µM (active)
- IC50 [7]: > 80 µM (inactive)

Compound: Cc1oc2c(C)c3oc(=O)c(CCC(=O)O)c(C)c3cc2c1-c1ccccc1
- IC50 [8]: 13.4 µM (active)
- IC50 (Tumor necrosis factor): 5.03 µM (active)
- IC50 (HEK293 [9]): 14.8 µM (inactive)
- EC50 [10]: 3.67 µM (active)
- EC50 (HEK293 [11]): 7.66 µM (active)
- IC50 [12]: > 66.6 µM (inactive)
- IC50 (HEK293 [13]): > 20 µM (inactive)
- IC50 (HEK293 [14]): > 20 µM (inactive)
- IC50 (HEK293 [15]): > 20 µM (inactive)
- IC50 (HEK293 [16]): > 20 µM (inactive)
- IC50 [17]: 5.03 µM (active)
- IC50 [18]: 5.43 µM (active)

Compound: CCOc1ccc(-c2[nH]nc(C)c2Oc2ccc(OC)cc2)c(O)c1
- Absolute IC50 (XBP1) (X-box-binding protein 1): 10 µM
